Type in all cases: in vivo, ICR strain mice
For experiment [1], the system named is Escherichia coli No. 22. Kind of experiment: Test 2: protective effect against bacterial infection (i.p. 6, 5, 4 and 1 day before infection). Conditions: mice observed 4 days. As to the method:
(§1) Test animals: ICR strain mice, males, 4 weeks old, 10 to 20 animals per group.
(§2) Method of bacterial infection: Escherichia coli No. 22, cultured at 37° C. for 20 hours (concentration: 2.0×10^8 cfu/ml), was suspended in sterile physiological saline and the test mice were intraperitoneally inoculated with 0.5 ml of the suspension.
(2) Test 2 (protective effect against bacterial infection)
(§3) Test animals: Same as Test 1.
Administration schedule: Each peptide of this invention in predetermined concentrations (aqueous solutions) was intraperitoneally administered 6, 5, 4 and 1 day before infection.
(§4) Method of bacterial infection: Same as Test 1.

Experiment [2] deals with Escherichia coli No. 22. Kind of experiment: Test 3: protective effect against bacterial infection (i.p. 8, 7, 4, 3 and 2 days before infection). The conditions noted are these: mice observed 4 days. The procedure: as §1, §2
(3) Test 3 (protective effect against bacterial infection)
Test animals: Same as Test 1
(§5) Administration schedule: Each peptide of this invention in predetermined concentrations (aqueous solutions) was intraperitoneally administered 8, 7, 4, 3 and 2 days before infection.
as §4

For experiment [3], the system named is Herpes simplex virus type 1 Miyama strain. Kind of experiment: Test 4: protective effect against virus infection. The conditions noted are these: mice observed 14 days.
Excerpt: as §1
(4) Test 4 (protective effect against virus infection)
as §3, §5
(§6) Method of virus infection: Herpes simplex virus type 1 Miyama strain (concentration: 2×10^3 pfu/ml) was suspended in sterile physiological saline and 0.2 ml of the suspension was intraperitoneally inoculated.

For experiment [4], the system named is Escherichia coli No. 22. Put plainly: Test 1: protective effect against bacterial infection (i.p. 7, 6, 3, 2 and 1 day before infection). Conditions: mice observed 4 days. The procedure: (1) Test 1 (protective effect against bacterial infection)
as §1
(§7) Administration schedule: The peptides of this invention in predetermined concentrations (aqueous solutions) were intraperitoneally administered 7, 6, 3, 2 and 1 day before infection.
as §2

Experiment [5] has as its system Herpes simplex virus type 1 Miyama strain. Kind of experiment: Test 6: protective effect against virus infection. Conditions: 0.01 mg/kg i.p. 8, 7, 4, 3 and 2 days before i.p. HSV-1 infection; mice observed 14 days. The procedure:
as §1
(6) Test 6 (protective effect against virus infection)
Test animals: Same as Test 5.
Administration schedule: Each peptide of this invention in aqueous solution was intraperitoneally administered 8, 7, 4, 3 and 2 days before infection (0.01 mg/kg).
as §6

Experiment [6] relates to Escherichia coli No. 22. Kind of experiment: Test 5: protective effect against bacterial infection (i.p. 7, 6, 3, 2 and 1 day before infection). The conditions noted are these: mice observed 4 days. The procedure: (5) Test 5 (protective effect against bacterial infection)
as §1, §7, §2

Setting [7] is: 1 mg/kg i.p. 6, 5, 4 and 1 day before i.p. E. coli infection.
[8] abbreviates: 0.01 mg/kg i.p. 8, 7, 4, 3 and 2 days before i.p. E. coli infection.
Setting [9] is: 0.1 mg/kg i.p. 8, 7, 4, 3 and 2 days before i.p. E. coli infection.
The mark [10] stands for this setting: 1.0 mg/kg i.p. 8, 7, 4, 3 and 2 days before i.p. E. coli infection.
Where [11] appears, read: 0.01 mg/kg i.p. 7, 6, 3, 2 and 1 day before i.p. E. coli infection.
The mark [12] stands for this setting: 0.1 mg/kg i.p. 7, 6, 3, 2 and 1 day before i.p. E. coli infection.
Where [13] appears, read: 1.0 mg/kg i.p. 7, 6, 3, 2 and 1 day before i.p. E. coli infection.

Where a SMILES comes first, the peptide text is derived from it. [ ]: non-standard residue; d: D form. pGlu = O=C1CC[C@@H](C(=O)O)N1

Results on 15 molecules are retold here after US4497801A, “New peptides, process for preparation thereof and use thereof” (Fujisawa Pharmaceutical Co., Ltd., priority 1982, dated 1985).

For the molecule “H-TKEKLKSELVAN-OH [Example 5-(2), H-Thr-Lys-Glu-Lys-Leu-Lys-Ser-Glu-Leu-Val-Ala-Asn-OH]”, the “Survival rate (%)” value in the experiment on Escherichia coli No. 22 [1] (setting [7]) was found to be 50%.

In the case of “H-KETIEQEKQ-OH [Example 12-(2), H-Lys-Glu-Thr-Ile-Glu-Gln-Glu-Lys-Gln-OH]”, the “Survival rate (%)” value in the experiment on Escherichia coli No. 22 [2] (setting [8]) came out at 70%; in the experiment with Escherichia coli No. 22 [2] (setting [9]) it was 50%; with Escherichia coli No. 22 [2] (setting [10]), 50%.

As to “H-KLKSE-OH [Example 15-(2), H-Lys-Leu-Lys-Ser-Glu-OH]”, the “Survival rate (%)” value in the experiment with Escherichia coli No. 22 [2] (setting [8]) is recorded as 80%; in the experiment with Escherichia coli No. 22 [2] (setting [9]), 100%; in the experiment with Escherichia coli No. 22 [2] (setting [10]), 80%.

Take “H-NVKAKIQDKEG-OH [Example 8-(2), H-Asn-Val-Lys-Ala-Lys-Ile-Gln-Asp-Lys-Glu-Gly-OH]”: the “Survival rate (%)” value with Escherichia coli No. 22 [2] (setting [8]) was determined as 80%; with Escherichia coli No. 22 [2] (setting [9]), 60%; in the experiment on Escherichia coli No. 22 [2] (setting [10]) it was 90%.

“H-EQEKQ-OH [Example 11-(2), H-Glu-Gln-Glu-Lys-Gln-OH]”: the “Survival rate (%)” value in the experiment with Escherichia coli No. 22 [2] (setting [8]) was found to be 70%; in the experiment with Escherichia coli No. 22 [2] (setting [9]), 50%; in the experiment on Escherichia coli No. 22 [2] (setting [10]) it was 70%.

“H-SKLKSNSTHQ-OH [Example 1-(2), H-Ser-Lys-Leu-Lys-Ser-Asn-Ser-Thr-His-Gln-OH]”: the “Survival rate (%)” value in experiment [3] (0.01 mg/kg i.p. 8, 7, 4, 3 and 2 days before i.p. HSV-1 infection) is listed as 80%; in experiment [3] (0.1 mg/kg i.p. 8, 7, 4, 3 and 2 days before i.p. HSV-1 infection), 40%; in experiment [3] (1 mg/kg i.p. 8, 7, 4, 3 and 2 days before i.p. HSV-1 infection) it was 60%; in the experiment on Escherichia coli No. 22 [1] (0.1 mg/kg i.p. 6, 5, 4 and 1 day before i.p. E. coli infection), 40%; in the experiment with Escherichia coli No. 22 [1] (setting [7]), 40%.

Take “H-TKDLKEKKEVVEE-OH [Example 7-(2), H-Thr-Lys-Asp-Leu-Lys-Glu-Lys-Lys-Glu-Val-Val-Glu-Glu-OH]”: the “Survival rate (%)” value in the experiment with Escherichia coli No. 22 [4] (setting [11]) was 50%; in the experiment on Escherichia coli No. 22 [4] (setting [12]), 70%; in the experiment on Escherichia coli No. 22 [4] (setting [13]), 40%.

Consider `C[C@H](NC(=O)[C@H](CCCCN)NC(=O)[C@@H]1CCC(=O)N1)C(=O)N[C@@H](CCCCN)C(=O)N[C@@H](CCCCN)C(=O)N[C@@H](CCC(N)=O)C(=O)NCC(=O)NCC(=O)N[C@@H](CO)C(=O)N[C@@H](CC(N)=O)C(=O)O` [Example 16-(4), pGlu-Lys-Ala-Lys-Lys-Gln-Gly-Gly-Ser-Asn-OH] ([pGlu]KAKKQGGSN-OH), for which, in experiment [5], the “Survival rate (%)” value is 85%.

Regarding “H-KEKKE-OH [Example 14-(2), H-Lys-Glu-Lys-Lys-Glu-OH]”, the “Survival rate (%)” value in the experiment on Escherichia coli No. 22 [2] (setting [8]) is 50%; in the experiment with Escherichia coli No. 22 [2] (setting [9]), 50%; in the experiment on Escherichia coli No. 22 [2] (setting [10]) it was 70%.

For the molecule `C[C@H](NC(=O)[C@@H]1CCC(=O)N1)C(=O)N[C@@H](CCCCN)C(=O)N[C@@H](CCCCN)C(=O)N[C@@H](CCC(N)=O)C(=O)NCC(=O)NCC(=O)N[C@@H](CO)C(=O)N[C@@H](CC(N)=O)C(=O)O` [Example 17-(2), pGlu-Ala-Lys-Lys-Gln-Gly-Gly-Ser-Asn-OH] ([pGlu]AKKQGGSN-OH), the “Survival rate (%)” value in experiment [5] stood at 90%.

Turning to “H-KSKLKKTETQE-OH [Example 9-(2), H-Lys-Ser-Lys-Leu-Lys-Lys-Thr-Glu-Thr-Gln-Glu-OH]”, the “Survival rate (%)” value in the experiment on Escherichia coli No. 22 [2] (setting [8]), in the experiment on Escherichia coli No. 22 [2] (setting [9]) and with Escherichia coli No. 22 [2] (setting [10]) was 70% in each case.

As for “pGlu-Lys-Ala-Lys-Ser-Gln-Gly-Gly-Ser-Asn-OH ([pGlu]KAKSQGGSN-OH; SMILES C[C@H](NC(=O)[C@H](CCCCN)NC(=O)[C@@H]1CCC(=O)N1)C(=O)N[C@@H](CCCCN)C(=O)N[C@@H](CO)C(=O)N[C@@H](CCC(N)=O)C(=O)NCC(=O)NCC(=O)N[C@@H](CO)C(=O)N[C@@H](CC(N)=O)C(=O)O) [Example 18-(2)]”, the “Survival rate (%)” value in the experiment on Escherichia coli No. 22 [6] (setting [11]) was 60%; in the experiment on Escherichia coli No. 22 [6] (setting [12]) it was 70%; in the experiment on Escherichia coli No. 22 [6] (setting [13]) it was 80%.

“H-EKLKSELVAN-OH [Example 4-(2), H-Glu-Lys-Leu-Lys-Ser-Glu-Leu-Val-Ala-Asn-OH]”: the “Survival rate (%)” value in the experiment with Escherichia coli No. 22 [1] (setting [7]) worked out at 50%.

Take “H-DLKEKKEVVEE-OH [Example 6-(2), H-Asp-Leu-Lys-Glu-Lys-Lys-Glu-Val-Val-Glu-Glu-OH]”: the “Survival rate (%)” value in the experiment on Escherichia coli No. 22 [4] (setting [11]) is 70%; in the experiment with Escherichia coli No. 22 [4] (setting [12]), 40%; in the experiment with Escherichia coli No. 22 [4] (setting [13]) it was 60%.

For the molecule “H-KFDKSKLKKTETQE-OH [Example 10-(2), H-Lys-Phe-Asp-Lys-Ser-Lys-Leu-Lys-Lys-Thr-Glu-Thr-Gln-Glu-OH]”, the “Survival rate (%)” value amounted to 50% in the experiment with Escherichia coli No. 22 [2] (setting [8]), 60% with Escherichia coli No. 22 [2] (setting [9]) and 70% with Escherichia coli No. 22 [2] (setting [10]).
